Reference: ChEMBL document CHEMBL3098055 (Bioorg Med Chem Lett, 2014)
Bridge positions count the residues as written; N and C are the ends. Square brackets hold non-standard residues; d marks the D form. Peptide text beside a SMILES is read from it. AllylGly = C=CC[C@H](N)C(=O)O

What was measured:
Type in all cases: cell-based
[1] = target: Somatostatin receptor type 5 (Homo sapiens, UniProt P35346); test: Displacement of [125I]-somatostatin from human SSTR5 expressed in CHO-K1 cells
[2] = target: Somatostatin receptor type 4 (Homo sapiens, UniProt P31391); test: Displacement of [125I]-somatostatin from human SSTR4 expressed in CHO-K1 cells
[3] = target: Somatostatin receptor type 3 (Homo sapiens, UniProt P32745); test: Displacement of [125I]-somatostatin from human SSTR3 expressed in CHO-K1 cells
[4] = target: Somatostatin receptor type 2 (Homo sapiens, UniProt P30874); test: Displacement of [125I]-somatostatin from human SSTR2 expressed in CHO-K1 cells
[5] = target: Somatostatin receptor type 1 (Homo sapiens, UniProt P30872); test: Displacement of [125I]-somatostatin from human SSTR1 expressed in CHO-K1 cells
Somatostatin receptor type 1, sequence (P30872 whole entry): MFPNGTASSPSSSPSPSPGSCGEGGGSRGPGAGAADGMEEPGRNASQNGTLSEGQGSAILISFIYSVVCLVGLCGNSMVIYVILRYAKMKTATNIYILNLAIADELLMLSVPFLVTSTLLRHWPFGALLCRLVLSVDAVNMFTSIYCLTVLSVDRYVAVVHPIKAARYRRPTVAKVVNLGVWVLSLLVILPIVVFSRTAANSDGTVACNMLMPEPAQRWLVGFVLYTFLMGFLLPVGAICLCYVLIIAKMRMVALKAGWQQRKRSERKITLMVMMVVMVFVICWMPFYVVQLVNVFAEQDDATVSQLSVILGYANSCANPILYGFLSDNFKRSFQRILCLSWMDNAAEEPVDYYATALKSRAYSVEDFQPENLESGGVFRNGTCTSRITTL

Somatostatin receptor type 3, sequence (P32745 whole entry): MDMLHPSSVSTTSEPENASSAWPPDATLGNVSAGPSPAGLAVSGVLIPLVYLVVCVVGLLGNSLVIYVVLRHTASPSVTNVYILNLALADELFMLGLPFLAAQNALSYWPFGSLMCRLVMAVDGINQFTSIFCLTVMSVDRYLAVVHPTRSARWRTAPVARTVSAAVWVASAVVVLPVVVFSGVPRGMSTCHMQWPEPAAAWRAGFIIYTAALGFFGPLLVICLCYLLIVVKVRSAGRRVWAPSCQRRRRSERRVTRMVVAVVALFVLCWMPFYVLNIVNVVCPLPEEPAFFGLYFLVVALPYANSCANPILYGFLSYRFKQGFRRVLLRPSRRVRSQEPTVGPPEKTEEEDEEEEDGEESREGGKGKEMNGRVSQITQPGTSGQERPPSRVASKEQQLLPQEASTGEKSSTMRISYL
Somatostatin receptor type 2, sequence (P30874 whole entry): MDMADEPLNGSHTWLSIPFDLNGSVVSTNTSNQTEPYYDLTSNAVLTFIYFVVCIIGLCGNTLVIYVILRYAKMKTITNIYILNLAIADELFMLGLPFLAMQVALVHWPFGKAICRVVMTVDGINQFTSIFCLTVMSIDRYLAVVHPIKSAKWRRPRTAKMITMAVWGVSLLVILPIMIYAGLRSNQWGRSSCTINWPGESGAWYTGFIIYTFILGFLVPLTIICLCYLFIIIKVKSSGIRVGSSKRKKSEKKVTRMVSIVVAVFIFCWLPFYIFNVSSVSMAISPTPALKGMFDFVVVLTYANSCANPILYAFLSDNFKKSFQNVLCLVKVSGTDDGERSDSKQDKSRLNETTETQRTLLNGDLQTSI
Somatostatin receptor type 5, sequence (P35346 whole entry): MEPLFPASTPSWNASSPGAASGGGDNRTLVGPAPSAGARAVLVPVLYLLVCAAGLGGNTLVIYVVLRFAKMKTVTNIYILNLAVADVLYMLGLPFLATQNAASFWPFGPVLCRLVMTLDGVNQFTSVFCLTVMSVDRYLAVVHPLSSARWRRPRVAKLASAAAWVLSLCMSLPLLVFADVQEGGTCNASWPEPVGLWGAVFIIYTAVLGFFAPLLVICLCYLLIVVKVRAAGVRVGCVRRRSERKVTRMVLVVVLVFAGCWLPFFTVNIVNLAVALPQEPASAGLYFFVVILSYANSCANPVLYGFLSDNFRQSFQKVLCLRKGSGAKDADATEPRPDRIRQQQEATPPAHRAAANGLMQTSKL
Somatostatin receptor type 4, sequence (P31391 whole entry): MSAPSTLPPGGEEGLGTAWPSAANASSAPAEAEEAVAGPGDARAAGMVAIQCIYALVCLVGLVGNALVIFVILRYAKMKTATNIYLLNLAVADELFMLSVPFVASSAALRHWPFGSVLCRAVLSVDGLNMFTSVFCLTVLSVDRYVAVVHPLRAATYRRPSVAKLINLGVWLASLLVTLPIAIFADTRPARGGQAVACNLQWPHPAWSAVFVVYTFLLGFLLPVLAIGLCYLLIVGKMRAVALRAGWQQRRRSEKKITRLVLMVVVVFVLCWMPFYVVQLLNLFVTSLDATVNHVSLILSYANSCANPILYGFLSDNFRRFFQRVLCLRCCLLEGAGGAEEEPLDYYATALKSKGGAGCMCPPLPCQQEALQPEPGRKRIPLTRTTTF

C[C@H](N)C(=O)NCC(=O)N[C@H]1C/C=C\C[C@@H](C(N)=O)NC(=O)[C@H](CO)NC(=O)[C@H]([C@@H](C)O)NC(=O)[C@H](Cc2ccccc2)NC(=O)[C@H]([C@@H](C)O)NC(=O)[C@H](CCCCN)NC(=O)[C@H](Cc2c[nH]c3ccccc23)NC(=O)[C@H](Cc2ccccc2)NC(=O)[C@H](Cc2ccccc2)NC(=O)[C@H](CC(N)=O)NC(=O)[C@H](CCCCN)NC1=O (H-AG[AllylGly]KNFFWKTFTS[AllylGly]-NH2; staple (Z) 3-14)
Ki [1]: 0.2 nM
Ki [2]: 1.77 nM
Ki [3]: 4.24 nM
Ki [4]: 0.41 nM
Ki [5]: 0.31 nM
